From patent publication EP4692083A1, “NOVEL AZABICYCLE DERIVATIVES AND PHARMACEUTICAL COMPOSITION FOR INHIBITING AUTOTAXIN, COMPRISING SAME” (Nextgen Bioscience Co., Ltd., priority 2023, dated 2024)

Molecular target: human Autotaxin protein (Homo sapiens, UniProt Q13822)
Assay: Evaluation of the inhibitory activity against human Autotaxin protein (18:1 LysoPC substrate, choline assay kit, absorbance at 570 nm)
Type: biochemical
Settings: at 500nM compound, 2 hours at 37 °C, read-out: Inhibition rate (%, at 500nM)
Protocol: Solutions of each synthesized compound (80 uM, 100% dimethyl sulfoxide) were sequentially diluted 5-fold with dimethyl sulfoxide to prepare 6 concentrations. Each concentration of the compound was diluted 2-fold with 1x test buffer (50 mM Tris-Cl (pH 8.0), 5 mM KCl, 1 mM CaCl2, 1 mM MgCl2, 140 mM NaCl, deionized water, 1 mg/mL BSA), and 1 uL (1.25% dimethylsulfoxide) of the diluted mixture was dispensed into each well of a 96-well clear round-bottom plate. 9 uL of 1x test buffer was added, and 20 uL of 240 nM human autotaxin protein (buffer: 50 mM Tris-HCl, pH 8.0, with 150 mM sodium chloride and 20% glycerol) was added. 10 uL of sonicated 360 uM 18:1 LysoPC (diluted with 1x assay buffer) was added. The reaction was performed for 2 hours in a shaking incubator at 37 °C, and a secondary reaction mixture (choline assay kit, KA1662) (65 uL of 1x assay buffer: 1 uL of choline oxidase: 1 uL of dye probe) was prepared. 60 uL of the secondary reaction mixture was added to the plate where the reaction was performed, and incubated for 30 minutes in a shaker. The absorbance value was measured at a wavelength of 570 nm using a SpectraMax iD3 microplate reader. The percentage inhibition activity value (% inhibition) was calculated by the formula: (1 - absorbance value test group / absorbance value control group) X 100.

Going from `FC(F)(F)c1ccc(CCNc2ncc(-c3nnc(N4C[C@@H]5[C@H](C4)[C@H]5c4cnn[nH]4)o3)cn2)cc1` [Example 26, 5-(5-((1R,5S,6r)-6-(1H-1,2,3-Triazol-5-yl)-3-azabicyclo[3.1.0]hexan-3-yl)-1,3,4-oxadiazol-2-yl)-N-(4-(trifluoromethyl)phenethyl)pyrimidin-2-amine] to `Brc1ccc(CCNc2ncc(-c3nnc(N4C[C@@H]5[C@H](C4)[C@H]5c4cnn[nH]4)o3)cn2)cc1` [Example 27, 5-(5-((1R,58,6r)-6-(1H-1,2,3-Triazol-5-yl)-3-azabicyclo[3.1.0]hexan-3-yl)-1,3,4-oxadiazol-2-yl)-N-(4-bromophenethyl)pyrimidin-2-amine], the inhibition at 0.5 µM rises from 98.4% to 98.6%.

First: Clc1ccccc1CCNc1ncc(-c2nnc(N3C[C@@H]4[C@H](C3)[C@H]4c3cnn[nH]3)o2)cn1 [Example 28, 5-(5-((1R,5S,6r)-6-(1H-1,2,3-Triazol-5-yl)-3-azabicyclo[3.1.0]hexan-3-yl)-1,3,4-oxadiazol-2-yl)-N-(2-chlorophenethyl)pyrimidin-2-amine]
Second: c1ccc(CCNc2ncc(-c3nnc(N4C[C@@H]5[C@H](C4)[C@H]5c4cnn[nH]4)o3)cn2)nc1 [Example 32, 5-(5-((1R,5S,6r)-6-(1H-1,2,3-Triazol-5-yl)-3-azabicyclo[3.1.0]hexan-3-yl)-1,3,4-oxadiazol-2-yl)-N-(2-(pyridin-2-yl)ethyl)pyrimidin-2-amine]
The inhibition at 0.5 µM of the first is higher: 96.4% for the first, 48.7% for the second.

`Clc1cc(Cl)cc(CCNc2ncc(-c3nnc(N4C[C@@H]5[C@H](C4)[C@H]5c4cnn[nH]4)o3)cn2)c1` [Example 29, 5-(5-((1R,5S,6r)-6-(1H-1,2,3-Triazol-5-yl)-3-azabicyclo[3.1.0]hexan-3-yl)-1,3,4-oxadiazol-2-yl)-N-(3,5-dichlorophenethyl)pyrimidin-2-amine] and `Cc1ccc(CCNc2ncc(-c3nnc(N4C[C@@H]5[C@H](C4)[C@H]5c4cnn[nH]4)o3)cn2)cc1` [Example 31, 5-(5-((1R,5S,6r)-6-(1H-1,2,3-Triazol-5-yl)-3-azabicyclo[3.1.0]hexan-3-yl)-1,3,4-oxadiazol-2-yl)-N-(4-methylphenethyl)pyrimidin-2-amine] are the same in inhibition at 0.5 µM: 97% for the first, 97% for the second.

First: COc1ccc(CCNc2ncc(-c3nnc(N4C[C@@H]5[C@H](C4)[C@H]5c4cnn[nH]4)o3)cn2)cc1 [Example 30, 5-(5-((1R,5S,6r)-6-(1H-1,2,3-Triazol-5-yl)-3-azabicyclo[3.1.0]hexan-3-yl)-1,3,4-oxadiazol-2-yl)-N-(4-methoxyphenethyl)pyrimidin-2-amine]
Second: N#Cc1ccc(CCNc2ncc(-c3nnc(N4C[C@@H]5[C@H](C4)[C@H]5c4cnn[nH]4)o3)cn2)cc1 [Example 33, 4-(2-((5-(5-((1R,5S,6r)-6-(1H-1,2,3-Triazol-5-yl)-3-azabicyclo[3.1.0]hexan-3-yl)-1,3,4-oxadiazol-2-yl)pyrimidin-2-yl)amino)ethyl)benzonitrile]
The inhibition at 0.5 µM of the first is higher: 95.7% for the first, 93.7% for the second.

Compared with `c1ccc2c(c1)CC[C@H]2Nc1ncc(-c2nnc(N3C[C@@H]4[C@H](C3)[C@H]4c3cnn[nH]3)o2)cn1` [Example 34, 5-(5-((1R,5S,6R)-6-(1H-1,2,3-Triazol-5-yl)-3-azabicyclo[3.1.0]hexan-3-yl)-1,3,4-oxadiazol-2-yl)-N-((R)-2,3-dihydro-1H-inden-1-yl)pyrimidin-2-amine], `c1ccc2c(c1)CC[C@@H]2Nc1ncc(-c2nnc(N3C[C@@H]4[C@H](C3)[C@H]4c3cnn[nH]3)o2)cn1` [Example 35, 5-(5-((1R,5S,6S)-6-(1H-1,2,3-Triazol-5-yl)-3-azabicyclo[3.1.0]hexan-3-yl)-1,3,4-oxadiazol-2-yl)-N-((S)-2,3-dihydro-1H-inden-1-yl)pyrimidin-2-amine] is higher in inhibition at 0.5 µM: 90.8% for the first, 96.8% for the second.

Compared with `c1ccc(Nc2ncc(-c3nnc(N4C[C@@H]5[C@H](C4)[C@H]5c4cnn[nH]4)o3)cn2)cc1` [Example 36, 5-(5-((1R,5S,6r)-6-(1H-1,2,3-Triazol-5-yl)-3-azabicyclo[3.1.0]hexan-3-yl)-1,3,4-oxadiazol-2-yl)-N-phenylpyrimidin-2-amine], `CN(CCc1ccc(Cl)cc1)c1ncc(-c2nnc(N3C[C@@H]4[C@H](C3)[C@H]4c3cnn[nH]3)o2)cn1` [Example 37, 5-(5-((1R,5S,6r)-6-(1H-1,2,3-Triazol-5-yl)-3-azabicyclo[3.1.0]hexan-3-yl)-1,3,4-oxadiazol-2-yl)-N-(4-chlorophenethyl)-N-methylpyrimidin-2-amine] is higher in inhibition at 0.5 µM: 65.2% for the first, 91.7% for the second.

First: O=C(CCCc1nnc(NC2Cc3ccccc3C2)s1)N1C[C@@H]2[C@H](C1)[C@H]2c1cnn[nH]1 [Example 38, 1-((1R,5S,6r)-6-(1H-1,2,3-Triazol-5-yl)-3-azabicyclo[3.1.0]hexan-3-yl)-4-(5-((2,3-dihydro-1H-inden-2-yl)amino)-1,3,4-thiadiazol-2-yl)butan-1-one]
Second: O=C(CCc1nnc(NC2Cc3ccccc3C2)s1)N1C[C@@H]2[C@H](C1)[C@H]2c1cnn[nH]1 [Example 39, 1-((1R,5S,6r)-6-(1H-1,2,3-Triazol-5-yl)-3-azabicyclo[3.1.0]hexan-3-yl)-3-(5-((2,3-dihydro-1H-inden-2-yl)amino)-1,3,4-thiadiazol-2-yl)propan-1-one]
The inhibition at 0.5 µM of the first is lower: 25.5% for the first, 59.7% for the second.

Compared with `Cc1nc(NCCc2ccc(Cl)cc2)ncc1-c1nnc(N2C[C@@H]3[C@H](C2)[C@H]3c2cnn[nH]2)o1` [Example 40, 5-(5-((1R,5S,6r)-6-(1H-1,2,3-Triazol-5-yl)-3-azabicyclo[3.1.0]hexan-3-yl)-1,3,4-oxadiazol-2-yl)-N-(4-chlorophenethyl)-4-methylpyrimidin-2-amine], `Clc1ccc(CCNc2cnc(-c3nnc(N4C[C@@H]5[C@H](C4)[C@H]5c4cnn[nH]4)o3)cn2)cc1` [Example 42, 5-(5-((1R,5S,6r)-6-(1H-1,2,3-Triazol-5-yl)-3-azabicyclo[3.1.0]hexan-3-yl)-1,3,4-oxadiazol-2-yl)-N-(4-chlorophenethyl)pyrazin-2-amine] is lower in inhibition at 0.5 µM: 92.3% for the first, 68.4% for the second.

Going from `Clc1ccc(CCNc2ccc(-c3nnc(N4C[C@@H]5[C@H](C4)[C@H]5c4cnn[nH]4)o3)cn2)cc1` [Example 41, 5-(5-((1R,5S,6r)-6-(1H-1,2,3-Triazol-5-yl)-3-azabicyclo[3.1.0]hexan-3-yl)-1,3,4-oxadiazol-2-yl)-N-(4-chlorophenethyl)pyridin-2-amine] to `O=C(CCc1cnc(NCCc2ccc(Cl)cc2)nc1)N1C[C@@H]2[C@H](C1)[C@H]2c1cnn[nH]1` [Example 43, 1-((1R,5S,6r)-6-(1H-1,2,3-Triazol-5-yl)-3-azabicyclo[3.1.0]hexan-3-yl)-3-(2-((4-chlorophenethyl)amino)pyrimidin-5-yl)propan-1-one], the inhibition at 0.5 µM falls from 95.8% to 84.8%.

Compared with `O=C(CCCc1cnc(NCc2cc(Cl)cc(Cl)c2)nc1)N1C[C@@H]2[C@H](C1)[C@H]2c1cnn[nH]1` [Example 44, 1-((1R,5S,6r)-6-(1H-1,2,3-Triazol-5-yl)-3-azabicyclo[3.1.0]hexan-3-yl)-4-(2-((3,5-dichlorobenzyl)amino)pyrimidin-5-yl)butan-1-one], `O=C(/C=C/c1cnc(NCCc2ccc(Cl)cc2)nc1)N1C[C@@H]2[C@H](C1)[C@H]2c1cnn[nH]1` [Example 45, (E)-1-((1R,5S,6r)-6-(1H-1,2,3-Triazol-5-yl)-3-azabicyclo[3.1.0]hexan-3-yl)-3-(2-((4-chlorophenethyl)amino)pyrimidin-5-yl)prop-2-en-1-one] is higher in inhibition at 0.5 µM: 58.6% for the first, 98.7% for the second.
